From PubChem BioAssay (NCI)
“And” between values parts separate entries of the source, which are not always exact repeats. Equal values may be shown once.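 Values below derive from 48-hour exposures of cells grown in 96-well plates, with endpoints linearly interpolated between the two concentrations bracketing the appropriate inhibition level. GI50: concentration for 50% inhibition of growth. At the TGI there is no net growth.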

Columns and labels:
Test in all cases: inhibition of tumour cell growth, NCI panel, 48 h
[1] = tested on: RPMI-8226 leukemia
[2] = tested on: HOP-92 NSCLC
[3] = tested on: SF-268 CNS
[4] = tested on: NCI-H522 lung
[5] = tested on: HCT-116 colon
[6] = tested on: NCI-H226 lung
[7] = tested on: NCI-H460 lung
[8] = tested on: RXF 393 renal
[9] = tested on: UACC-257 melanoma
[10] = tested on: OVCAR-5 ovarian

| Compound | GI50 [1] | TGI [1] | GI50 [2] [µM] | TGI [2] | GI50 [3] | TGI [3] | GI50 [4] | TGI [4] | GI50 [5] | TGI [5] | GI50 [6] | TGI [6] | GI50 [7] | TGI [7] [µM] | GI50 [8] | TGI [8] | GI50 [9] | TGI [9] | GI50 [10] | TGI [10] [µM] |
| --- | --- | --- | --- | --- | --- | --- | --- | --- | --- | --- | --- | --- | --- | --- | --- | --- | --- | --- | --- | --- |
| Cc1nc2sc(C(=O)Nc3cccc4ccccc34)c(N)c2cc1C(O)c1ccccc1 (stereo unspecified) | 0.0595 µM | 5.74 µM | 2.11 | 18.8 µM | 0.174 µM | 11.2 µM | 0.048 µM | 11.4 µM | 0.0439 µM | 10.9 µM | 1.19 µM | 28.4 µM | 0.0381 µM | 0.449 | 0.0307 µM | 24.7 µM | 1.5 µM | 26.4 µM | 0.28 µM | > 100 |
| C=C1C(C2(C)C(OC(C)=O)CC(=O)OC(C)(COC(C)=O)C2CC(=O)OC)C(OC=O)C(OC(=O)C(O)C(C)CC)C2(C)C(c3ccoc3)CC(=O)C12O (stereo unspecified) |  | > 100 µM |  | > 100 µM |  | > 100 µM |  | > 100 µM |  | > 100 µM |  | > 100 µM |  | > 21.8 |  | 6.48 µM |  | > 100 µM |  | > 100 |
| COc1ccccc1C(O)(c1ccccc1)C(O)(c1ccccc1)c1ccccc1OC (stereo unspecified) |  | > 100 µM |  | > 100 µM |  | > 100 µM |  | > 100 µM |  | > 100 µM |  | > 100 µM |  | > 100 |  | > 100 µM |  | > 100 µM |  | > 100 |
| O=C1Cc2c([nH]c3ccccc23)-c2ccccc2N1 |  | > 100 µM |  | > 100 µM |  | > 100 µM |  | 62.6 µM |  | 31.9 µM |  | > 100 µM |  | > 100 |  | 40.7 µM |  | > 100 µM |  | 67.4 |
| COc1cc2c(cc1OC)-c1ccc3cc4c(cc3c1N(CCCn1ccnc1)C2)OCO4 | 1.31 µM | 5.62 µM | 3.58 | 32.5 µM | 0.514 µM | 53.4 µM | 0.565 µM | 3.35 µM | 2.93 µM | 16.2 µM | 5.52 µM | 24.8 µM | 0.527 µM | 11.3 | 3.43 µM | 16.3 µM | 5.9 µM | 23.3 µM | 16.4 µM | 69.9 |
| C=C(CN1CCN(c2cccc(C(F)(F)F)n2)CC1)c1ccc(C(=O)Nc2ccccc2N)cc1 | 0.534 µM and 0.277 µM | 4.19 µM and 1.33 µM | 2 | 43.9 µM | 1.13 µM and 0.578 µM | 31.2 µM and > 100 µM | 1.11 µM and 0.896 µM | > 100 µM and 38.1 µM | 0.537 µM and 0.402 µM | > 100 µM | 13.4 µM and 20.9 µM | > 100 µM | 0.64 µM and 0.37 µM | > 100 | 0.672 µM and 2.12 µM | 26.1 µM and > 100 µM |  | > 100 µM | 0.712 µM and 3.63 µM | > 100 |
| Cc1ccc2c(-c3ccnc(Nc4ccccc4)n3)c(-c3ccc(F)cc3)nn2n1 | 10.5 µM | > 25 µM | 3.33 | > 25 µM | 11.1 µM | > 25 µM | 4.34 µM | 13.9 µM | 4.48 µM | 14.6 µM | 8.23 µM | 24.2 µM | 5.24 µM | 15.1 | 3.77 µM | > 18.7 µM | 6.85 µM | 15.1 µM | 8.25 µM | > 25 |
| CNC(=O)c1ccc(N2C(=S)N(c3ccc(C#N)c(C(F)(F)F)c3)C(=O)C2(C)C)cc1F | 24.4 µM | > 80 µM | 16.5 | > 48.9 µM | > 52.3 µM | > 100 µM | 50.9 µM | > 100 µM | 23.9 µM | > 58.2 µM | 39.7 µM | > 71.9 µM | 28.2 µM | > 74.3 | 35.8 µM | > 66 µM | 35.1 µM | > 80.7 µM | > 47.5 µM | > 92.4 |
| CC(=O)N1C/C(=C/c2ccc(Cl)cc2)C(=O)/C(=C/c2ccc(Cl)cc2)C1 | 0.0889 µM | 0.463 µM | 1.52 | 4.06 µM | 1.37 µM | 4.02 µM | 1.35 µM | 2.83 µM | 0.202 µM | 0.465 µM | 1.17 µM | 3.49 µM | 1.32 µM | 4.22 | 0.546 µM | 1.61 µM | 1.52 µM | 2.97 µM | 1.68 µM | 3.45 |
| C[C@]12CC[C@H](OC3OC(CO)C(O)C(O)C3O)C[C@H]1CC[C@@H]1[C@@H]2CC[C@]2(C)[C@@H](C3=CCOC3=O)CC[C@]12O (stereo partly specified) |  | 19.5 µM and > 100 µM | > 100 | 31.1 µM and > 100 µM | > 100 µM and 27.1 µM | 50 µM and > 100 µM | 74.9 µM and 10.1 µM | 50 µM and > 100 µM | > 100 µM and 51.3 µM | 50 µM and > 100 µM |  | 26.4 µM and > 100 µM | 0.943 µM and 4.26 µM | 29.4 | > 100 µM and 89.2 µM | 37 µM and > 100 µM | 21.9 µM and > 100 µM | 50 µM and > 100 µM | > 100 µM | > 100 |
| COc1ccc(-c2cc(=O)c3ccccc3o2)cc1N |  | > 100 µM |  | > 100 µM |  | > 100 µM |  | 77.6 µM |  | > 100 µM |  | > 100 µM |  | > 100 |  | > 100 µM |  | > 100 µM |  | > 100 |
| C[C@]12CC[C@@H]3c4cc(-c5ccc(F)cc5)c(O)cc4CC[C@H]3[C@@H]1CC[C@@H]2O | 2.78 µM | 16.5 µM | 10.6 | 23.6 µM | 7.29 µM | 27.8 µM | 3.79 µM | 16.7 µM | 5.65 µM | 22 µM | 10.3 µM | 30.4 µM | 4.26 µM | 19.6 | 2.66 µM | 5.9 µM | 15.3 µM | 29.6 µM | 19.1 µM | 39.2 |
| Cc1ccc(Cc2cnc(NC(=O)/C=C/c3cccc(C)c3)s2)cc1 | 0.175 µM | 10.5 µM | 0.0793 | > 57 µM | 1.85 µM | > 100 µM | 0.151 µM | > 100 µM | 0.0746 µM | 2.4 µM | 0.608 µM |  | 0.064 µM | 11.8 | 0.106 µM | 0.671 µM | > 42.3 µM | > 100 µM | 0.492 µM | > 70.8 |
| CNC(=S)NC(=O)c1c(Cl)n(C(=O)OC(C)(C)C)c2ccccc12 | 20.5 µM | 68.9 µM | 15.1 | 85.1 µM | 72.8 µM | > 100 µM | 30.6 µM | 90.9 µM | 38.5 µM | > 100 µM | > 100 µM | > 100 µM | 48.6 µM | > 100 | 48.5 µM | > 100 µM | 94.5 µM | > 100 µM | 73.8 µM | > 100 |
